Tests used:
Experiment in all cases: Kinase profiling
Type in all cases: biochemical
AXL = molecular target: T1, AXL (Homo sapiens, UniProt P30530)
T1 construct: purchased ProQinase (Freiburg, Germany)
T1 sequence (P30530 26-894): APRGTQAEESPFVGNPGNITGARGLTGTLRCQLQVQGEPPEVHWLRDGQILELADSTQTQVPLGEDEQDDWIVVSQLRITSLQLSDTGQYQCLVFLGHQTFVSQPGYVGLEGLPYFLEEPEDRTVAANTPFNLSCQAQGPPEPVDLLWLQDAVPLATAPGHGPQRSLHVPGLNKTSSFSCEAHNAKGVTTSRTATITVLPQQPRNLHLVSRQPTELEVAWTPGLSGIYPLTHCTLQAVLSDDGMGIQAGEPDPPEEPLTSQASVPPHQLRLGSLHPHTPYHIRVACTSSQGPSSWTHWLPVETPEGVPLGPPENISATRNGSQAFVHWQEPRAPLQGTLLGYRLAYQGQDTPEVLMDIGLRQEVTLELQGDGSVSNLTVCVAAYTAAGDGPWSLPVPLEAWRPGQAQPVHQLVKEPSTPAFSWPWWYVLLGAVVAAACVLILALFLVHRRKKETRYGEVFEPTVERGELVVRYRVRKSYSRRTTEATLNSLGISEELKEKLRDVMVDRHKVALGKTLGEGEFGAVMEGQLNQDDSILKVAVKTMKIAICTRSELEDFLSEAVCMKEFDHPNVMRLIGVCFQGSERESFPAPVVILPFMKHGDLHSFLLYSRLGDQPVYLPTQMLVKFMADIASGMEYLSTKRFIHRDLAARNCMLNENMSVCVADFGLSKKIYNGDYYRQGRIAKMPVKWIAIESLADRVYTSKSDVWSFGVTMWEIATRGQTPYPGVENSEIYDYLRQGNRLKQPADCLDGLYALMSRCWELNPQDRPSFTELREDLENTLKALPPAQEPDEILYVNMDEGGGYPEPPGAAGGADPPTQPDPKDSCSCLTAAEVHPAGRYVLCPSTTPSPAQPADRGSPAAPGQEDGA
Protocol: (§1) The analysis was performed by ProQinase (Freiburg, Germany).

BTK = molecular target: T2, BTK (Homo sapiens, UniProt Q06187)
T2 construct: purchased ProQinase (Freiburg, Germany)
Protocol: as §1

CDK20/CycH = molecular target: T3, CDK20/CycH (Homo sapiens, UniProt Q8IZL9)
T3 construct: purchased ProQinase (Freiburg, Germany)
T3 sequence (Q8IZL9 whole entry): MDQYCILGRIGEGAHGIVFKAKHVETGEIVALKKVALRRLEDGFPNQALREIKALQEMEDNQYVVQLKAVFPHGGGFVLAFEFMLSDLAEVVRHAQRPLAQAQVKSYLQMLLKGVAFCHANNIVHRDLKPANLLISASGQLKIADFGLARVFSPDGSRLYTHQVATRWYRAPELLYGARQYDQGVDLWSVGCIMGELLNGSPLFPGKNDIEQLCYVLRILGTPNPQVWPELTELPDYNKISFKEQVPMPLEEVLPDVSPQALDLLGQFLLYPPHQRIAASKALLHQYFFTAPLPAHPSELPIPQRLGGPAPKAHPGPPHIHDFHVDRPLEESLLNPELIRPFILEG
T3 sequence (P51946 whole entry partner): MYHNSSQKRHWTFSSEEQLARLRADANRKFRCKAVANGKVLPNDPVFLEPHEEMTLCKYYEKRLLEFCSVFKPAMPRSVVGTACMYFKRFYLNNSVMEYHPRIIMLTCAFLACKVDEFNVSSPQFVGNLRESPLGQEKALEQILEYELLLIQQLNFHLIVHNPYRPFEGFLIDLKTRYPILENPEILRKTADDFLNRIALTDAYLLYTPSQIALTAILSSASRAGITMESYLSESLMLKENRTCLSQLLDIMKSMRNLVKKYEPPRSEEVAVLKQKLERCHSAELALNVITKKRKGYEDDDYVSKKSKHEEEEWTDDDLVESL
Protocol: as §1

CK1gamma2 = molecular target: T4, CK1gamma2 (Homo sapiens, UniProt P78368)
T4 construct: purchased ProQinase (Freiburg, Germany)
T4 sequence (P78368 whole entry): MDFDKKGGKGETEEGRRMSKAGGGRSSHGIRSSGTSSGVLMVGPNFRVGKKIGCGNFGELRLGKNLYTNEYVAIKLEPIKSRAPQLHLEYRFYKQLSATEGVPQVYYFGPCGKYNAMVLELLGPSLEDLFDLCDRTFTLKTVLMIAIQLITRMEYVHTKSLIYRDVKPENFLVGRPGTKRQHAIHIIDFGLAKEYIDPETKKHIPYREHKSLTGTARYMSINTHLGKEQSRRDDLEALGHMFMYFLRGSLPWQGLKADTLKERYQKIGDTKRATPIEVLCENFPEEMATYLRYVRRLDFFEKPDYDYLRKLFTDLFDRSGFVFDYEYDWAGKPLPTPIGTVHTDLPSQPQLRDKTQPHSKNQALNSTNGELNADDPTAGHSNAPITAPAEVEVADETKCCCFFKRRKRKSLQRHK
Protocol: as §1

EGFR = molecular target: T5, EGFR (Homo sapiens, UniProt P00533)
T5 construct: purchased ProQinase (Freiburg, Germany)
Protocol: as §1

EPHA5 = molecular target: T6, EPHA5 (Homo sapiens, UniProt P54756)
T6 construct: purchased ProQinase (Freiburg, Germany)
T6 sequence (P54756 25-1037): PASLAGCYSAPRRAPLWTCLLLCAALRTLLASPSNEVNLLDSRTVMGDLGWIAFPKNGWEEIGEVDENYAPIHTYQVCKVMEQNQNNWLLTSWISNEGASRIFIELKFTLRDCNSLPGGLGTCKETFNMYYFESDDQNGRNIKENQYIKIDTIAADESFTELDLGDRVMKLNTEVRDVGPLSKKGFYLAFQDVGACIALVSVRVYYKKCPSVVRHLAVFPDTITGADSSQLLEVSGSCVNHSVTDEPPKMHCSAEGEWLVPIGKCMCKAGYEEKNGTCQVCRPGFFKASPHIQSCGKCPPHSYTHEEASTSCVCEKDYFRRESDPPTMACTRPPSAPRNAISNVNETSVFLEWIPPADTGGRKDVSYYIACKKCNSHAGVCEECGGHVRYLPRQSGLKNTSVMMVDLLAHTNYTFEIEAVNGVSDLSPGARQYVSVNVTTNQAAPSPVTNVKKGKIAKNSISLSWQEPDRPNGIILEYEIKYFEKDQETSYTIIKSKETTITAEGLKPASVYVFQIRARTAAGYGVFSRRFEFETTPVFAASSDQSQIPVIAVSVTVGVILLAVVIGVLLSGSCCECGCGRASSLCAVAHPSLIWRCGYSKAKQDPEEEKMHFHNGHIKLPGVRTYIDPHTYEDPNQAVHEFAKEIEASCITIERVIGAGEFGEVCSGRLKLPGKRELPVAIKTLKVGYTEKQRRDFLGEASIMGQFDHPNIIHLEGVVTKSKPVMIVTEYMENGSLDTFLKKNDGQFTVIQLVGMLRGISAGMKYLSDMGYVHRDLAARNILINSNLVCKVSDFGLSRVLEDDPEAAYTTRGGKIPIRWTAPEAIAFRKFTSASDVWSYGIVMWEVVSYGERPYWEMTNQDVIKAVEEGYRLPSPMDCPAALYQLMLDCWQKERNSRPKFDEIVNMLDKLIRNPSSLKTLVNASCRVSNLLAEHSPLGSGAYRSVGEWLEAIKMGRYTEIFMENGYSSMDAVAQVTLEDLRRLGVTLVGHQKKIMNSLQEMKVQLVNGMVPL
Protocol: as §1

FGFR1 = molecular target: T7, FGFR1 (Homo sapiens, UniProt P11362)
T7 construct: purchased ProQinase (Freiburg, Germany)
Protocol: as §1

JNK3 = molecular target: T8, JNK3 (Homo sapiens, UniProt P53779)
T8 construct: purchased ProQinase (Freiburg, Germany)
T8 sequence (P53779 whole entry): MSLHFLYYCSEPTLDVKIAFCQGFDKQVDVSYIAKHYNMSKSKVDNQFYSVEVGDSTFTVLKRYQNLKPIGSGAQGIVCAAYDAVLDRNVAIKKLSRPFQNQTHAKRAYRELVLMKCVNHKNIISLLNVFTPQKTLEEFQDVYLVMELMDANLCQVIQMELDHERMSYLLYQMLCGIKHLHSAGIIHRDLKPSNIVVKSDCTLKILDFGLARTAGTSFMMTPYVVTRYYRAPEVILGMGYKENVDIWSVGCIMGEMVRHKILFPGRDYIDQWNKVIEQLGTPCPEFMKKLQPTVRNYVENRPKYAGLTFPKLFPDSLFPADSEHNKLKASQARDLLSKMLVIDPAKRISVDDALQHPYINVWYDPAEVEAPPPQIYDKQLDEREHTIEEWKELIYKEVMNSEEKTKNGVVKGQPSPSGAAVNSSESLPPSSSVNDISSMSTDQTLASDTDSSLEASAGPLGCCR
Protocol: as §1

MST1 = molecular target: T9, MST1 (Homo sapiens, UniProt Q13043)
T9 construct: purchased ProQinase (Freiburg, Germany)
T9 sequence (Q13043 1-487): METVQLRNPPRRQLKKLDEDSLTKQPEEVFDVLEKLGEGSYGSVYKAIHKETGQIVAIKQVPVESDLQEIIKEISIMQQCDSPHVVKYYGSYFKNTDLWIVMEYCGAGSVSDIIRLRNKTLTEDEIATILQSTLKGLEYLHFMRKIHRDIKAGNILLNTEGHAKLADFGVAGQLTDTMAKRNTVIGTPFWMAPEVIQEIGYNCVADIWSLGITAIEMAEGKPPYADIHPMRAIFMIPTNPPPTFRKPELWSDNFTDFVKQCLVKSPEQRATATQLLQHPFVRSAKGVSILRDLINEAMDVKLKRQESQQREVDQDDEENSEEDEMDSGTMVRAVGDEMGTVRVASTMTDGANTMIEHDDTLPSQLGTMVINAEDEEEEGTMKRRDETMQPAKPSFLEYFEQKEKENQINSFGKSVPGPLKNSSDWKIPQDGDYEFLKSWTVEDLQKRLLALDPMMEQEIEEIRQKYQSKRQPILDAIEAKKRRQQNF
Protocol: as §1

VEGFR3 = molecular target: T10, VEGFR3 (Homo sapiens, UniProt P35916)
T10 construct: purchased ProQinase (Freiburg, Germany)
Protocol: as §1

WNK2 = molecular target: T11, WNK2 (Homo sapiens, UniProt Q9Y3S1)
T11 construct: purchased ProQinase (Freiburg, Germany)
T11 sequence (Q9Y3S1 whole entry): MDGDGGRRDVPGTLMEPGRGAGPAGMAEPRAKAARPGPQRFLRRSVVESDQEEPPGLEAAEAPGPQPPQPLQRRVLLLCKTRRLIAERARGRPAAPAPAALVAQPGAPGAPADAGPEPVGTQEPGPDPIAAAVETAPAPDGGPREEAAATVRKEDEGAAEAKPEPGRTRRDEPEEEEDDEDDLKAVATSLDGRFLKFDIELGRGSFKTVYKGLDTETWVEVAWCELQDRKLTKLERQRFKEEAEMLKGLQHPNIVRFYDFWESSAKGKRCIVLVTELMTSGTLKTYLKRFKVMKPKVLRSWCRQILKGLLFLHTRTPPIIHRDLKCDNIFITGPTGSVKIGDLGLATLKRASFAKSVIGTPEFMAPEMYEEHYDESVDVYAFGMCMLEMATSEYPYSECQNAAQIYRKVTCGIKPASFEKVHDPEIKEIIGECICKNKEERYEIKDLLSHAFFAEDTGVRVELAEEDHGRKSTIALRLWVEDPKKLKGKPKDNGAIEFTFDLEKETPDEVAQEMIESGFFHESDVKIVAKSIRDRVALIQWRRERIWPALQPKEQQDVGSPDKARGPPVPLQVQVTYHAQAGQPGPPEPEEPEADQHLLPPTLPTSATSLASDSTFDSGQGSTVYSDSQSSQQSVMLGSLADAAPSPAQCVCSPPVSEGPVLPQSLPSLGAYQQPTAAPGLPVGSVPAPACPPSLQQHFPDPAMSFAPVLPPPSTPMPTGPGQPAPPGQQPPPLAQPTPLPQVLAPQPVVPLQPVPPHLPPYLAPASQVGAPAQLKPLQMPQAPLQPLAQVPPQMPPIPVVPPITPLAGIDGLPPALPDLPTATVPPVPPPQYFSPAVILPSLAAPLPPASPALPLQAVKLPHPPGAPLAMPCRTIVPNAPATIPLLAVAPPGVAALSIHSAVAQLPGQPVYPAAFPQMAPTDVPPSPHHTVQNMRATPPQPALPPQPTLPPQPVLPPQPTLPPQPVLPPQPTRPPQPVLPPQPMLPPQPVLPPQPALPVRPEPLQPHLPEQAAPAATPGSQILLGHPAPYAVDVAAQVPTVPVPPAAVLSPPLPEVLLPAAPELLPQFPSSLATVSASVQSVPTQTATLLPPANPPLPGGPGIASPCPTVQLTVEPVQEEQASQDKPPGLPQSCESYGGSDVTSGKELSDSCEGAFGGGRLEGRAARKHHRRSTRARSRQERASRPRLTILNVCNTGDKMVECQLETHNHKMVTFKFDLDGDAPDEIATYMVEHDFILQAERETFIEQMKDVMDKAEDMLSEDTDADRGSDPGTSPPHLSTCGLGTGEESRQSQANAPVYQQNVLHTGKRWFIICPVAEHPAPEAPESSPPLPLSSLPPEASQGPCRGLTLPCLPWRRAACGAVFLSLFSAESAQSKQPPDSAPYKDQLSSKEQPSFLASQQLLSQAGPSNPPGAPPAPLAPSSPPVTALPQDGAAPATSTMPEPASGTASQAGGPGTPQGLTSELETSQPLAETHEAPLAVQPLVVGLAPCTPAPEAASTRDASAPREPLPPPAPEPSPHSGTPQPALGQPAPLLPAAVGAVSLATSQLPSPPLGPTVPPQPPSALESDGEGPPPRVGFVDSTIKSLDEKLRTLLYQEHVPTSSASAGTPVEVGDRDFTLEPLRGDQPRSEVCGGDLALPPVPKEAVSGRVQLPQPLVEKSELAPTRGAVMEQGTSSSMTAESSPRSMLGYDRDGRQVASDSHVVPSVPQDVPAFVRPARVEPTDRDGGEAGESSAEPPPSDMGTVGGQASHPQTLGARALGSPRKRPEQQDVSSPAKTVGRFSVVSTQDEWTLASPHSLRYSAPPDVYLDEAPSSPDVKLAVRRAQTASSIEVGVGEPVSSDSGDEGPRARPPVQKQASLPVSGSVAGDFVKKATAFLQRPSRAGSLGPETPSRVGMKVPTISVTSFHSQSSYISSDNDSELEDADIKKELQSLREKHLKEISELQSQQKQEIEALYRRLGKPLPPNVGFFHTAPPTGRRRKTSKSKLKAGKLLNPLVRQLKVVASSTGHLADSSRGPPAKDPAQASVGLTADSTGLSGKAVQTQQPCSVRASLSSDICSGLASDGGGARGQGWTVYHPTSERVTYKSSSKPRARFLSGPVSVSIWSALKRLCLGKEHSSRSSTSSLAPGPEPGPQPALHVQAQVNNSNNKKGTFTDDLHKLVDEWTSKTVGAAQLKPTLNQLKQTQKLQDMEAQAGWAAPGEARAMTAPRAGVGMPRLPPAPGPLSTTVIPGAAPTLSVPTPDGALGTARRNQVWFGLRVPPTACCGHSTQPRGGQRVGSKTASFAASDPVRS
Protocol: as §1

SMILES	Residual activity (AXL; 1.0E-05 M)	Residual activity (AXL; 1.0E-06 M)	Residual activity (BTK; 1.0E-05 M)	Residual activity (BTK; 1.0E-06 M)	Residual activity (CDK20/CycH; 1.0E-05 M)	Residual activity (CDK20/CycH; 1.0E-06 M)	Residual activity (CK1gamma2; 1.0E-05 M)	Residual activity (CK1gamma2; 1.0E-06 M)	Residual activity (EGFR; 1.0E-05 M)	Residual activity (EGFR; 1.0E-06 M)	Residual activity (EPHA5; 1.0E-05 M)	Residual activity (EPHA5; 1.0E-06 M)	Residual activity (FGFR1; 1.0E-05 M)	Residual activity (FGFR1; 1.0E-06 M)	Residual activity (JNK3; 1.0E-05 M)	Residual activity (JNK3; 1.0E-06 M)	Residual activity (MST1; 1.0E-05 M)	Residual activity (MST1; 1.0E-06 M)	Residual activity (VEGFR3; 1.0E-05 M)	Residual activity (VEGFR3; 1.0E-06 M)	also measured
O=C(Nc1ccc(F)c(Nc2ccc3c(c2)CCCCC3=O)c1)c1cccc(F)c1 [Compound 109]	93 % of control	98 % of control	91 % of control	99 % of control	121 % of control	110 % of control	70 % of control	84 % of control	93 % of control	105 % of control	60 % of control	93 % of control	79 % of control	93 % of control	92 % of control	83 % of control	98 % of control	103 % of control	88 % of control	105 % of control	Residual activity (WNK2; 1.0E-05 M): 96 % of control; Residual activity (WNK2; 1.0E-06 M): 90 % of control
O=C(Cc1ccccc1)Nc1ccc(F)c(Nc2ccc3c(c2)CCCCC3=O)c1 [Compound 100]	99 % of control	103 % of control	78 % of control	99 % of control	98 % of control	103 % of control	114 % of control	104 % of control	99 % of control	100 % of control	67 % of control	96 % of control	78 % of control	93 % of control	119 % of control	96 % of control	92 % of control	102 % of control	84 % of control	108 % of control	Residual activity (WNK2; 1.0E-05 M): 100 % of control; Residual activity (WNK2; 1.0E-06 M): 95 % of control
